Results as given in patent publication US20130316963A1, “INNATE DEFENCE REGULATORY PEPTIDE COMPOSITIONS FOR TREATMENT OF ARTHRITIS” (UNIVERSITY OF MANITOBA, priority 2010, published 2013).

How the values were obtained:
JNK = JNK activity assay (immunoprecipitation, c-Jun Ser73 phosphorylation immunoblot) in human FLS cells; type: cell-based; settings: IL-1β 10 ng/ml 15 min; IDR-1002 100 μg/ml 45 min prior to or at time of stimulation; FIG. 8
Experimental: Human FLS cells (5×10^4/ml) were seeded in a total volume of 20 ml per 75 cm^2 tissue culture flask in complete DMEM media containing 10% FBS for each condition. The cells were allowed to adhere overnight. Following day the media was changed to 10 ml complete DMEM containing 1% FBS. The cells were either un-stimulated or treated with IL-1β (10 ng/ml) in the presence or absence of IDR-1002 (100 μg/ml) for 15 min. IL-1β is known to induce JNK activation, and also p38 MAPK activity, after 15 min in FLS cells. Peptide IDR-1002 (100 μg/ml) was added either 45 min prior to, or at the time of stimulation with IL-1β. Total protein concentration was evaluated for each cell lysate employing micro BCA (Thermo Scientific). Kinase activities specific to JNK and to p38-MAPK were monitored employing the JNK activity assay kit and the p38 MAPK assay kit (Abcam Inc., Calif., USA) following the manufacturer's instructions. For JNK, 50 μg of total protein per cell lysate was used for immunoprecipitation employing a JNK-specific antibody. The eluate was treated with c-Jun substrate and ATP mixture. Subsequent phosporylation of c-Jun was evaluated by probing immunoblots with anti-phospho-c-Jun (Ser73) specific antibody. […] Subsequent phosporylation of ATF-2 was evaluated by probing immunoblots with a phospho-ATF-2 (Thr76) specific antibody. […]

human FLS cells = assay: Cellular cytotoxicity by release of lactate dehydrogenase (LDH); type: cell-based; settings: presence and absence of cytokine stimulation, 24 hr; IDR-1002 100 μg/ml, IDR-1 200 μg/ml; data not shown
Experimental: Synovial tissues were obtained from patients with OA in accordance to a protocol by the Institutional Review Board at the University of Manitoba. FLS cells were isolated from the synovial tissues following the procedure taught by Kammouni et al. (2007, Regulation of apoptosis in fibroblast-like synoviocytes by the hypoxia-induced Bcl-2 family member Bcl-2/adenovirus E1B 19-kd protein-interacting protein 3. Arthritis Rheum. 56:2854-2863). […] Cellular cytotoxicity was evaluated by monitoring the release of lactate dehydrogenase (LDH) employing a colorimetric detection kit (Roche Diagnostics, Laval, QC, Canada).
Inflammatory cytokines TNF-α and IL-1β stimulate cells types such as FLS, chondrocytes and macrophages resulting in the production of MMP-3 in arthritic joints. […] In this study we evaluated the impact of IDR peptides on TNF-α and IL-1β-induced MMP-3 production. […] The peptides were not cytotoxic to the FLS cells in the presence and absence of cytokine stimulation, as determined by monitoring the tissue culture supernatants for the release of LDH after 24 hr of stimulation (data not shown). Tissue culture supernatants were monitored after 24 hr of stimulation for MMP-3 production by ELISA. […]

VQRWLIVWRIRK (IDR-1002 peptide)
IL-1β-induced JNK activity and phosphorylation of c-Jun (Ser73) (JNK): abrogated
cytotoxicity to FLS cells (release of LDH) (human FLS cells): not cytotoxic
